Assay results published in patent US7214495B2, “Screening method” (Takeda Pharmaceutical Company Limited, priority 2002, dated 2007).

Columns and labels:
[1] = target: T1, human GPR40 (Homo sapiens, UniProt O14842); experiment: EC50 by FLIPR calcium assay in CHO cells stably expressing human GPR40; assay type: cell-based; settings: intracellular calcium, FLIPR, stable CHO line; read-out: EC50 Human GPR40
T1 construct: The resulting fragment (ca. 1 kb) was introduced into vector pAKKO-111, which was used for transfection of CHO cells; expressed in transfected cells
T1 sequence (O14842 whole entry, the tested form may be a part): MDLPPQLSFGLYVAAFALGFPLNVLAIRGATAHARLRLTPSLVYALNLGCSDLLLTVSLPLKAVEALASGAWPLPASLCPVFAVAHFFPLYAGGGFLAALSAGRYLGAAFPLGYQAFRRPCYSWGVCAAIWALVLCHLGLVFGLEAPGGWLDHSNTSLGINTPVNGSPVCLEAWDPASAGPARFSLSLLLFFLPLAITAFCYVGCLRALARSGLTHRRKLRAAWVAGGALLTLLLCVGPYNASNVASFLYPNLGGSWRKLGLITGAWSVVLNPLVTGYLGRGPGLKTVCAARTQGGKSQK
Procedure: (§1) For determination of EC50 values, the CHO cell lines in which human-, mouse- and rat-derived GPR40 was stably expressed were used. Unless otherwise indicated, these CHO cell lines were incubated in α-MEM medium (Invitrogen) supplemented with 10% fetal calf serum (Invitrogen).
(§2) On the day before assay, the cells incubated to almost confluent stage were rinsed with PBS (Invitrogen), then scraped in 0.05% trypsin-EDTA solution (Invitrogen) and recovered by centrifugal operation. The number of the cells obtained was counted and diluted so as to contain 3×10^5 cells/1 mL of the medium. The dilution was dispensed in a Black welled 96-well plate (Coster) in 100 μL/well, followed by incubation overnight in a CO2 incubator. To the thus prepared CHO cells, various test samples were added and the changes in intracellular calcium level in this case were measured using FLIPR (Molecular Device). In order to determine the changes in the intracellular calcium ion level on FLIPR, the cells were pre-treated by the following procedures.
(§3) First, for the purpose of adding a fluorescent dye Fluo-3 AM (DOJIN) to the cells or washing the cells immediately before the FLIPR assay, an assay buffer was prepared. A solution obtained by adding 20 mL of 1M HEPES (pH 7.4) (DOJIN) to 1000 mL of HBSS (Invitrogen) was prepared (hereinafter HBSS/HEPES solution), to which 10 mL of a solution mixture obtained by dissolving 710 mg of Probenecid (Sigma) in 5 mL of 1N NaOH and further adding 5 mL of HBSS/HEPES solution was added. The resulting solution was used as the assay buffer. Next, 50 μg of Fluo-3AM was dissolved in 21 μL of DMSO (Wako) and an equal volume of 20% Pulronic acid (Molecular Probes) was added to and mixed with the solution. The mixture was then added to 10.6 mL of the assay buffer supplemented with 105 μL of fetal calf serum to prepare a fluorescent dye solution. […], the medium for the CHO cells again plated in a Black welled 96-well plate was removed. Immediately thereafter, the fluorescent dye solution was dispensed in 100 μL each/well and the cells were incubated in a CO2 incubator for an hour so that the fluorescent dye was taken up into the cells. The cells after the incubation was washed with the assay buffer described above and set on FLIPR. […] After the pre-treatment above was made, the changes in intracellular calcium level after the addition of various test samples were measured on FLIPR.

[2] = target: T2, human-derived GPR40 (Homo sapiens, UniProt O14842); experiment: Intracellular calcium change (FLIPR) in CHO-hGPR40 No. 104, eicosanoids; assay type: cell-based; settings: added in 10^−5 M to 10^−6 M; no response in vector-only control
T2 construct: The DNA fragment encoding human GPR40 was acquired by the following PCR procedures; expressed in transfected cells; host or cells: CHO-K1 (transient, Lipofectamine)
T2 sequence (O14842 whole entry, the tested form may be a part): as above
Procedure: The CHO cell line (CHO-hGPR40 No. 104) wherein human GPR40 prepared by publicly known methods using the human GPR40 expression vector prepared in REFERENCE EXAMPLE 1 was expressed was cultured in MEMα medium (Invitrogen) containing 10% fetal calf serum (Invitrogen), unless otherwise indicated. The cells cultured were rinsed with PBS (Invitrogen), scraped in trypsin/EDTA solution (Invitrogen) and recovered by centrifugal operation. The number of the cells obtained was counted and diluted so as to contain 3×10^4 cells/100 μl. The dilution was dispensed in a Black walled 96-well plate (Costar) in 100 μl/well, followed by incubation overnight in a CO2 incubator. The changes in intracellular calcium level in this case were measured using FLIPR (Molecular Device). In order to determine the changes in the intracellular calcium ion level on FLIPR, the cells were pre-treated by the following procedures. First, for the purpose of adding a fluorescent dye Fluo-3 AM (DOJIN) to the cells or washing the cells immediately before the FLIPR assay, an assay buffer was prepared. A solution obtained by adding 20 ml of 1M HEPES (pH 7.4) (DOJIN) to 1000 ml of HBSS (Invitrogen) was prepared (hereinafter HBSS/HEPES solution), to which 10 ml of a solution mixture obtained by dissolving 710 mg of Probenecid (Sigma) in 5 ml of 1N NaOH and further adding 5 ml of HBSS/HEPES solution was added. The resulting solution was used as the assay buffer. Next, 50 μg of Fluo-3AM was dissolved in 21 μl of DMSO (DOJIN) and an equal volume of 20% Pulronic acid (Molecular Probes) was added to and mixed with the solution. The mixture was then added to 10.6 ml of the assay buffer supplemented with 105 μl of fetal calf serum to prepare a fluorescent dye solution. The medium for the CHO cell line cultured was removed. Immediately thereafter, the fluorescent dye solution was dispensed in 100 μl each/well and the cells were incubated in a CO2 incubator for an hour so that the fluorescent dye was taken up into the cells. The cells after the incubation was washed with the assay buffer described above and set on FLIPR. A test sample added to the CHO cell line was prepared using the assay buffer and set on FLIPR at the same time. After the pre-treatment above was made, the changes in intracellular calcium level after the addition of various test samples were measured on FLIPR. […] It was thus noted that GPR40 was responsive to these compounds as well.

[3] = system: p44/42 MAP kinase in MIN6 cells; experiment: MAP kinase activation (western blot) in MIN6 cells; assay type: cell-based, mouse; settings: PD98059 50 μM during preincubation/incubation; 5 minutes
Procedure: The medium used was 4.5 g/l of glucose-containing Dulbecco's Modified Eagle Medium (DMEM, Invitrogen, Inc.) supplemented with 15% fetal calf serum (ThermoTrace, Inc.), 5.5 μM 2-mercaptethanol (Invitrogen, Inc.), 20 mM HEPES pH 7.3, 100 U/ml penicillin and 100 μg/ml streptomycin. The mouse pancreatic β cell line MIN6 cells were plated in a 12-well plate at a density of 2×10^5/well and incubated overnight. On the following morning, the medium was exchanged and incubation was continued overnight. The medium was again exchanged on the following morning. After incubation for 3 hours, preincubation was carried out in 22 mM glucose-containing KRBH for an hour. Various fatty acids were dissolved in KRBH (22 mM glucose) at a density of 10 μM followed by incubation for 2.5 minutes (or 5 minutes). MAPK inhibitor (PD98059) was added to KRBH in a concentration of 50 μM during the preincubation/incubation. After lysis/extraction in a sample buffer (TEFCO, Inc.), the cells were separated on SDS-PAGE and analyzed by western blotting using PhosphoPlus p44/42 MAP kinase (Thr202/Tyr204) Antibody Kit (Cell Signaling Technology, Inc.). […] The activation of MAPK occurred by the fatty acids showing the agonist activity in MIN6 as well as in the GPR40-expressed CHO cells. Thus, it was strongly supported that GPR40 would take part in MIN6 stimulation of fatty acids at least in part.

[4] = target: T3, Mouse GPR40 (Mus musculus, UniProt Q76JU9); experiment: EC50 by FLIPR calcium assay in CHO cells stably expressing mouse GPR40; assay type: cell-based; settings: intracellular calcium, FLIPR, stable CHO line; read-out: EC50 Mouse GPR40
T3 construct: expressed in transfected cells
T3 sequence (Q76JU9 whole entry): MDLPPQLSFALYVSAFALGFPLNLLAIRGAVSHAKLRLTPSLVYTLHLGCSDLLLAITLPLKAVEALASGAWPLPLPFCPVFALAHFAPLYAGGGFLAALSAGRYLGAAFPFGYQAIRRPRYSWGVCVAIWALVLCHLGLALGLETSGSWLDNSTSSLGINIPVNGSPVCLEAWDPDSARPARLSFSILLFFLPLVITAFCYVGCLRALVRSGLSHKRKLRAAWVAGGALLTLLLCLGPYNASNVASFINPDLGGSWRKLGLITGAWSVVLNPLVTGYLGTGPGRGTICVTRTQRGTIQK
Procedure: as §1, §2, §3

[5] = system: mouse insulinoma MIN6 cells; experiment: Insulin secretion from MIN6 cells with free fatty acid-BSA mixture (RIA); assay type: cell-based; settings: 300 μM to 1000 μM; fatty acid-BSA 4:1; 11 mM glucose; 90 (or 60) minutes
Procedure: The MIN6 cells were cultured in DMEM (high glucose, Invitrogen) containing 15% FCS (Trace Scientific Ltd.), 55 μM 2-mercaptoethanol, 100 U/ml penicillin and 100 μg/ml streptomycin, unless otherwise indicated. MIN6 cells were plated in a 96-well plate in 10^5 cells/well, followed by incubation at 37° C. for 3 days in a CO2 incubator adjusted to a concentration of 5% CO2. The medium was replaced by RPMI1640 (glucose free, Invitrogen) containing 10% FCS (Trace Scientific Ltd.), 5.5 mM glucose, 100 U/ml penicillin and 100 μg/ml streptomycin, followed by incubation for further 24 hours. After the medium was removed by suction, a solution mixture of free fatty acid-bovine serum albumin (BSA) (in a molar ratio of 4:1) diluted with RPMI1640 (glucose free, Invitrogen) containing 10% FCS (Trace Scientific Ltd.), 11 mM glucose, 100 U/ml penicillin and 100 μg/ml streptomycin was added to the cells, followed by reacting in a CO2 incubator adjusted to a 5% CO2 concentration at 37° C. for 90 minutes (or 60 minutes). After the reaction, the 96-well plate was centrifuged at 1500 rpm for 5 minutes and the culture supernatant was then recovered. The amount of insulin secreted into the culture supernatant was determined by radioimmunoassay (RIA) using the rat insulin RIA system (Amersham Pharmacia).

[6] = target: T4, Rat GPR40 (Rattus norvegicus, UniProt Q8K3T4); experiment: EC50 by FLIPR calcium assay in CHO cells stably expressing rat GPR40; assay type: cell-based; settings: intracellular calcium, FLIPR, stable CHO line; read-out: EC50 Rat GPR40
T4 construct: expressed in transfected cells
T4 sequence (Q8K3T4 whole entry): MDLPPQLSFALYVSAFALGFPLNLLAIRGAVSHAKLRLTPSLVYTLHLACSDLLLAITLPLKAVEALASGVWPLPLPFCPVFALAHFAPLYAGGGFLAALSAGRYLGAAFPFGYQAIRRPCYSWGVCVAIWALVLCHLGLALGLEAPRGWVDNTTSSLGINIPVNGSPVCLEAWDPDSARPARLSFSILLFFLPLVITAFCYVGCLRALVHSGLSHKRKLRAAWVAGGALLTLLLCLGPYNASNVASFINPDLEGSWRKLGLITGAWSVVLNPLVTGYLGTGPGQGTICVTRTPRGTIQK
Procedure: as §1, §2, §3

[7] = system: mouse GPR40-GFP fusion protein; experiment: Expression of mouse GPR40-GFP fusion protein in CHO cells after siRNA introduction (enzyme immunoassay); assay type: cell-based; settings: siRNA 2.86 pmols/0.5 μl or 8.57 pmols/1.5 μl, one day
Procedure: Mouse GPR40-GFP fusion protein-expressed CHO cells prepared by publicly known methods were plated in a 96-well plate at a density of 3×10^4/well, followed by incubation for a day. The siRNA (Dharmacon, Inc.) having various sequences, which was prepared according to the report by Elbasir et al. (Nature 411 (6836), 494–498 (2001)) using HVJ Envelope VECTOR KIT GenomONE™ (Ishihara Sangyo Kaisha, LTD.), was introduced into the cells (in a concentration of 2.86 pmols/0.5 μl or 8.57 pmols/1.5 μl), incubation followed for further one day. The expression level of mouse GPR40-GFP was detected by enzyme immunoassay as shown below. After the culture supernatant was discarded and the cells were washed with HBSS (Invitrogen), the cells were immobilized on 0.01% glutaraldehyde (Wako Pure Chemical) for 5 minutes, followed by blocking with 2% BSA-containing PBS (Takara Shuzo). Anti-GFP monoclonal antibody 3E6 (Nippon Gene) diluted to 500-fold was added to the cells. After incubation at room temperature for 2 hours, the cells were washed and HRP-labeled anti-mouse IgG antibody (ICN) diluted to 500-fold was added thereto followed by incubation at room temperature for 2 hours. After washing, TMB Microwell peroxidase substrate (Funakoshi) was added to the cells. After incubation for 30 minutes, sulfuric acid was added to stop the color-forming reaction and absorbance was measured at 450 nm.

Row | EC50 [1] | response (increase in intracellular calcium level) of GPR40-expressing CHO cell line [2] | Compound | also measured
1 | 6.1 ± 0.2 µM | specifically responsive | CCCCCC=CCC=CCC1OC1CC=CCCCC(=O)O (mixture of isomers) [8,9-Epoxyeicosatrienoic acid, (±)8(9)-epoxy-5Z,11Z,14Z-eicosatrienoic acid] | 
2 | 1.4 ± 0.3 µM | specifically responsive | CCCCCC=CCC1OC1CC=CCC=CCCCC(=O)O (mixture of isomers) [11,12-Epoxyeicosatrienoic acid, (±)11(12)-epoxy-5Z,8Z,14Z-eicosatrienoic acid] | 
3 | 1.1 ± 0.4 µM | specifically responsive | CCCCCC(O)C(O)CC=CCC=CCC=CCCCC(=O)O (mixture of isomers) [14,15-Dihydroxyeicosatrienoic acid, (±)14,15-dihydroxy-5Z,8Z,11Z-eicosatrienoic acid] | 
4 |  | specifically responsive | CCCCCC1OC1C/C=C\C/C=C\C/C=C\CCCC(=O)O (racemic) [14,15-EET, (±)14(15)-epoxy-5Z,8Z,11Z-eicosatrienoic acid] | 

Second part, the compound before the results:

Row | Compound | EC50 [1] | response (increase in intracellular calcium level) of GPR40-expressing CHO cell line [2] | also measured
5 | CCCCCC=CCC=CCC=CCC1OC1CCCC(=O)O (mixture of isomers) [5,6-Epoxyeicosatrienoic acid, (±)5(6)-epoxy-8Z,11Z,14Z-eicosatrienoic acid] | 7.7 ± 0.2 µM | specifically responsive | 
6 | COc1cccc(-c2cc(=O)c3ccccc3o2)c1N [PD98059] |  |  | effect on fatty acid-induced activation of MAPK in MIN6 [3]: almost suppressed
7 | CCCCCCCCCCCCCCCC(=O)O [Palmitic acid (C16), Palmitic acid] | 6.8 ± 0.5 µM |  | EC50 [4]: 4.6 ± 1.2 µM; insulin secretion by MIN6 cells [5]: promoted; EC50 [6]: 6.6 ± 0.4 µM
8 | m40i256: mouse GPR40-specific siRNA; sense strand SEQ ID NO: 36, antisense strand SEQ ID NO: 37 (sense CUUGUUAGCCAUCCGAGGCNN; antisense NNGAACAATCGGTAGGCTCCG; chemistry not given here; one strand is listed 3' to 5') |  |  | expression level of GPR40-GFP (absorbance at 450 nm) [7]: reduction in the expression level
